From patent US20110263696A1, “PROANTHOCYANIDINS FROM CINNAMON AND ITS WATER SOLUBLE EXTRACT INHIBIT TAU AGGREGATION” (priority 2007, published 2011)

Assays:
tau187 [1] = target: T1, tau187 (Homo sapiens, UniProt P10636); test: Turbidity (OD350) assay of heparin-induced aggregation, tau187; type: biochemical; details: cinnamaldehyde 50 and 100 uM; tau187 50 uM, heparin 0.11 mg/ml, 23 C
T1 construct: his; made in house; host or cells: bacteria
Procedure: FIG. 15A. […] 50 μM Tau^187 was incubated with 0.11 mg/ml heparin (18 kDa) at 23° C. Aggregation was monitored by turbidity (OD350). Cinnamaldehyde was present at a final concentration of 0, 50 and 100 μM. FIG. 15B. Electron microscopy of tau fibers in the presence of cinnamaldehyde (CA). Tau fibers were visualized by electron microscopy after 5 hrs of aggregation in the presence of: 0 CA (left panel); B) 100 uM CA (right panel). […] FIG. 15 C. Trans-cinnamaldehyde chemical structure. FIG. 16A. […] 50 uM tau187 was incubated with 0.11 mg/mL heparin (18 kDa) at 23° C. Epicatechin was untreated, treated with 10 mM NH4OH for 10 min at 95° C. then neutralized, or treated with 100 U of mushroom tyrosinase (Sigma) for 10 min. Epicatechin was added to the reaction at a final concentration of 25 uM. Fiber formation was monitored by OD 350. FIG. 16B. epicatechin and catechin chemical structures. FIG. 17A. HPLC analysis of proanthocyanidin A-type trimer, A) purified or B) in whole cinnamon extract. The trimer corresponds to the major peak at ˜40 min. Areas underneath the peaks in panels A and B each correspond to 6150 pmoles. […] Fiber formation was monitored by OD 350. Concentrations of A-trimer in pure form and in whole cinnamon extract (CE) were normalized by absorbance measurements of the A-trimer resolved by HPLC. […]

tau187 [2] = target: T1, tau187; test: Electron microscopy of tau187 fibers; type: biochemical; details: 100 uM CA, 5 hrs of aggregation
Procedure: FIG. 6. […] Aggregation of tau^187 (50 uM) was initiated with heparin (0.1 mg/ml) in 20 mM NaPO4, pH 7.0. in the presence of: no proanthocyanidin (left panel), or 200 uM purified A-type trimer (right panel). Scale: Bars=500 nm
FIG. 13. Effect of oxidized cinnamon on tau filament formation. […] Left panel: no cinnamon; right panel 10 μM oxidized cinnamon.
FIG. 15A. […] 50 μM Tau^187 was incubated with 0.11 mg/ml heparin (18 kDa) at 23° C. Aggregation was monitored by turbidity (OD350). Cinnamaldehyde was present at a final concentration of 0, 50 and 100 μM. FIG. 15B. Electron microscopy of tau fibers in the presence of cinnamaldehyde (CA). Tau fibers were visualized by electron microscopy after 5 hrs of aggregation in the presence of: 0 CA (left panel); B) 100 uM CA (right panel). […] FIG. 15 C. Trans-cinnamaldehyde chemical structure.
Two hexapeptide motifs in tau are critical for tau aggregation and fiber formation (see, e.g. von Bergen et al., Proc Nad Acad Sci USA 97, 5129-34 (2000)). These motifs lie in the first and second inter-repeat regions of the MT binding domain (FIG. 5), and it is known that engineered truncation fragments of tau that contain these motifs often undergo aggregation into fibers even more efficiently than the full-length molecule (see, e.g. Barghorn et al., Biochemistry 41, 14885-96 (2002)). […]

tau polypeptides = test: Light scattering measurements (absorbance at 350 nm) of tau aggregation; type: biochemical, human
Procedure: FIG. 11. Dose response of cinnamon (oxidized) on tau aggregation. […] In this experiment, cinnamon was incubated overnight in 10 mM NH4OH.
FIG. 12. Effect of cinnamon A trimer on light scattering of tau.
In one illustrative embodiment of the invention, the effects of cinnamon extract or purified cinnamon proanthocyanidins on tau aggregation can be followed readily in a spectrophotometer by measuring the change in absorbance at 350 nm. The association of tau promoted by heparin causes an increase in absorbance. […] Different buffers and temperatures may be used if desired to study factor influencing aggregation.

[3] = literature; cited from earlier work
tau = details: literature; cited from earlier work

T1 sequence (P10636 572-758 limits assumed): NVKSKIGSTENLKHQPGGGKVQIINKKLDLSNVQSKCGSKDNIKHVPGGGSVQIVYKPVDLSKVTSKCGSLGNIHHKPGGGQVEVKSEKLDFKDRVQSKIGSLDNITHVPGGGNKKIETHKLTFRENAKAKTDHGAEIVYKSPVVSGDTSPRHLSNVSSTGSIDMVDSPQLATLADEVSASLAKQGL

O=C/C=C/c1ccccc1 [cinnamaldehyde, Trans-cinnamaldehyde]
Inhibition of tau187 aggregation (turbidity OD350) (tau187 [1]): Inhibition of tau aggregation
Tau fiber density by EM (tau187 [2]): dramatically reduced

Oc1cc(O)c2c(c1)O[C@H](c1ccc(O)c(O)c1)[C@H](O)[C@H]2c1c(O)cc(O)c2c1O[C@H](c1ccc(O)c(O)c1)[C@H](O)C2 [cinnamon proanthocyanidin B2, proanthocyanidin B2]
Inhibition of tau aggregation by light scattering (tau polypeptides): inhibits the aggregation

Oc1cc(O)c2c(c1)O[C@H](c1ccc(O)c(O)c1)[C@H](O)C2 [epicatechin]
Brain permeability after oral ingestion [3]: brain-permeable

O=C(O[C@@H]1Cc2c(O)cc(O)cc2O[C@@H]1c1cc(O)c(O)c(O)c1)c1cc(O)c(O)c(O)c1 [epigallocatechin gallate]
Inhibition of tau aggregation (published studies) (tau): effectively inhibit tau aggregation

Oc1cc(O)c2c(c1)O[C@H](c1ccc(O)c(O)c1)[C@H](O)[C@H]2c1c(O)cc(O)c2c1O[C@H](c1ccc(O)c(O)c1)[C@@H](O)C2 [proanthocyanidin dimer B1]
Inhibition of tau aggregation (published studies) (tau): effectively inhibit tau aggregation
